Data reported in patent publication US7332476B2, “Pyridyl substituted ketolide antibiotics” (Novartis AG, priority 2003, dated 2008).
Values after ≈ are worked out from the molar mass of the structure shown.

How the values were obtained:
Experiment in all cases: MIC, broth microdilution (NCCLS)
Format in all cases: cell-based
[1] = tested on: Enterococcus faecalis Enfa_29212; settings: Table 10, Strain ID E (Table 8): Enterococcus faecalis Enfa_29212
Summary of the method: (§1)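 NCCLS broth microdilution with 2-fold serial drug dilutions (methanol stocks diluted in water); inoculum 3×10^5–7×10^5 CFU/ml in CAMHB, with 2-5% lysed horse blood for S. pneumoniae. Incubation 18-24 h at 35° C., ambient air, except S. pneumoniae (5-10% CO2). MIC is lowest concentration preventing visible growth.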

[2] = tested on: Haemophilus influenzae Hain_49247; settings: Table 10, Strain ID H (Table 8): Haemophilus influenzae Hain_49247; unit assumed
[3] = tested on: Staphylococcus aureus Stau_29213; settings: Table 10, Strain ID A (Table 8): Staphylococcus aureus Stau_29213; in µg/mL (unit assumed)
Summary of the method: as §1

[4] = tested on: Staphylococcus epidermidis Step_14990; settings: Table 10, Strain ID C (Table 8): Staphylococcus epidermidis Step_14990; in µg/mL (unit assumed)
Summary of the method: as §1

[5] = tested on: Staphylococcus epidermidis Step_f50654; settings: Table 10, Strain ID D (Table 8): Staphylococcus epidermidis Step_f50654; in µg/mL (unit assumed)
Summary of the method: as §1

[6] = tested on: Streptococcus pneumoniae Stpn_Erm S 4297; settings: Table 10, Strain ID R (Table 8): Streptococcus pneumoniae Stpn_Erm S 4297; unit assumed
Summary of the method: as §1

[7] = tested on: Streptococcus pneumoniae Stpn_Mef S 3427; settings: Table 10, Strain ID Q (Table 8): Streptococcus pneumoniae Stpn_Mef S 3427; in µg/mL (unit assumed)
Summary of the method: as §1

[8] = tested on: Enterococcus faecalis Enfa_bc 11148-2; settings: Table 10, Strain ID F (Table 8): Enterococcus faecalis Enfa_bc 11148-2; in µg/mL (unit assumed)
Protocol: (§2) Strains. The bacterial isolates listed in Table 8 were cultivated from −70° C. frozen stocks by two consecutive overnight passages (P1, P2) at 35° C. on 5% blood agar (Remel, Lenexa, Kans.). Chocolate agar (Remel) is used for Haemophilus influenzae. H. influenzae and Streptococcus pneumoniae are incubated in 5-10% CO2
(§3) Drug Stock Preparation. To determine the amount of solvent to be used to give the desired final concentration, the formula “weight obtained in mg/final concentration in mg/ml” will be used. It will give the amount of solvent in ml needed to be added to give the desired concentration. For example, if 2.5 mg/ml is the desired concentration and the weight of compound is 13.7 mg, then the amount of solvent to be added is […]. Methanol is used as the solvent to dissolve the test compounds. Further dilution of stock is done in sterile, deionized water. Drug stocks are kept frozen at −70° C., protected from light.
(§4) Susceptibility Testing. MICs are determined by the broth microdilution method in accordance with the NCCLS guidelines. In brief, organism suspensions are adjusted to a 0.5 McFarland standard to yield a final inoculum between 3×10^5 and 7×10^5 CFU/ml. Drug dilutions and inocula are made in sterile, cation adjusted Mueller-Hinton Broth (CAMHB) (Remel) for all but S. pneumoniae [CAMHB with 2-5% lysed horse blood (Remel)] and H. influenzae [Haemophilus Test Medium (Remel)]. An inoculum volume of 100 μl is added to wells containing 100 μl of broth with 2-fold serial dilutions of drug. All inoculated microdilution trays are incubated in ambient air at 35° C. for 18-24 hours, except for S. pneumoniae, and H. influenzae (both at 5-10% CO2).
(§5) Following appropriate incubation, the MIC is determined and the MIC is defined as the lowest concentration of the drug that prevented visible growth. […] Antibacterial activity of representative compounds of the invention were compared against telitromycin.

[9] = tested on: Haemophilus influenzae Hain_2762; settings: Table 10, Strain ID L (Table 8): Haemophilus influenzae Hain_2762; in µg/mL (unit assumed)
Protocol: as §2, §3, §4, §5

[10] = tested on: Haemophilus influenzae Hain_953460299-3; settings: Table 10, Strain ID K (Table 8): Haemophilus influenzae Hain_953460299-3; in µg/mL (unit assumed)
Protocol: as §2, §3, §4, §5

[11] = tested on: Haemophilus influenzae Hain_960730503-3; settings: Table 10, Strain ID I (Table 8): Haemophilus influenzae Hain_960730503-3; in µg/mL (unit assumed)
Protocol: as §2, §3, §4, §5

[12] = tested on: Haemophilus influenzae Hain_960820544-3; settings: Table 10, Strain ID J (Table 8): Haemophilus influenzae Hain_960820544-3; in µg/mL (unit assumed)
Protocol: as §2, §3, §4, §5

[13] = tested on: Staphylococcus aureus Stau_33591; settings: Table 10, Strain ID B (Table 8): Staphylococcus aureus Stau_33591; unit assumed
Protocol: as §2, §3, §4, §5

[14] = tested on: Streptococcus pyogenes Stpy_8668; settings: Table 10, Strain ID G (Table 8): Streptococcus pyogenes Stpy_8668
Summary of the method: as §1

[15] = tested on: Streptococcus pneumoniae Stpn_49619; settings: Table 10, Strain ID M (Table 8): Streptococcus pneumoniae Stpn_49619
Summary of the method: as §1

[16] = tested on: Streptococcus pneumoniae Stpn_297-749; settings: Table 10, Strain ID N (Table 8): Streptococcus pneumoniae Stpn_297-749
Summary of the method: as §1

[17] = tested on: Streptococcus pneumoniae Stpn_280-962; settings: Table 10, Strain ID O (Table 8): Streptococcus pneumoniae Stpn_280-962
Summary of the method: as §1

[18] = tested on: Streptococcus pneumoniae Stpn_Mef 5654; settings: Table 10, Strain ID P (Table 8): Streptococcus pneumoniae Stpn_Mef 5654; in µg/mL (unit assumed)
Summary of the method: as §1

## CC[C@H]1OC(=O)[C@H](C)C(=O)[C@H](C)[C@@H](OC2O[C@H](C)C[C@H](N(C)C)[C@H]2O)[C@@](C)(OC)C[C@@H](C)C(=O)[C@H](C)[C@H]2N(CCCCn3cnc(-c4ccc(Cl)nc4)c3)C(=O)O[C@]12CC (some centres unmarked) [XXI]
[1]
  MIC: =0.05
[2]
  MIC: 3.13 µg/mL (≈ 3.64 µM)
[3]
  MIC: 0.1
[4]
  MIC: 0.1
[5]
  MIC: 0.1
[6]
  MIC: 0.1 µg/mL (≈ 0.116 µM)
[7]
  MIC: 0.2
[8]
  MIC: 1.56
[9]
  MIC: 0.78
[10]
  MIC: 6.25
[11]
  MIC: 6.25
[12]
  MIC: 6.25
[13]
  MIC: > 50 µg/mL
[14]
  MIC: =0.05
[15]
  MIC: =0.05
[16]
  MIC: =0.05
[17]
  MIC: =0.05
[18]
  MIC: 0.78

## CC[C@H]1OC(=O)[C@H](C)C(=O)[C@H](C)[C@@H](OC2O[C@H](C)C[C@H](N(C)C)[C@H]2O)[C@@](C)(OC)C[C@@H](C)C(=O)[C@H](C)[C@@H]2[C@@H]1OC(=O)N2CCCCn1cnc(-c2ccc(C)nc2)c1 (some centres unmarked) [XXV]
[1]; in µg/mL (unit assumed)
  MIC: 0.1
[2]
  MIC: 3.13 µg/mL (≈ 3.85 µM)
[3]
  MIC: 0.2
[4]
  MIC: 0.2
[5]
  MIC: 0.2
[7]
  MIC: .04
[8]
  MIC: 3.13
[9]
  MIC: 1.56
[10]
  MIC: 6.25
[11]
  MIC: 6.25
[12]
  MIC: 6.25
[13]
  MIC: > 50 µg/mL
[14]
  MIC: =0.05
[15]
  MIC: =0.05
[16]
  MIC: =0.05
[17]
  MIC: =0.05
[18]
  MIC: 1.56

## C=C[C@]12OC(=O)N(CCCCn3cc(-c4ccc(OC)nc4)nc3C)[C@@H]1[C@@H](C)C(=O)[C@H](C)C[C@](C)(OC)[C@H](OC1O[C@H](C)C[C@H](N(C)C)[C@H]1O)[C@@H](C)C(=O)[C@@H](C)C(=O)O[C@@H]2CC (some centres unmarked) [XXVII]
[1]; in µg/mL (unit assumed)
  MIC: 0.2
[2]
  MIC: 6.25 µg/mL (≈ 7.2 µM)
[3]
  MIC: 0.2
[4]
  MIC: 0.2
[5]
  MIC: 0.2
[7]
  MIC: 0.2
[8]
  MIC: 6.25
[9]
  MIC: 1.56
[10]
  MIC: 12.5
[11]
  MIC: 12.5
[12]
  MIC: 6.25
[13]
  MIC: > 50 µg/mL
[14]; unit assumed
  MIC: 0.1 µg/mL (≈ 0.115 µM)
[15]
  MIC: =0.05
[16]
  MIC: =0.05
[17]
  MIC: =0.05
[18]
  MIC: 1.56

## CC[C@H]1OC(=O)[C@H](C)C(=O)[C@H](C)[C@@H](OC2O[C@H](C)C[C@H](N(C)C)[C@H]2O)[C@@](C)(OC)C[C@@H](C)C(=O)[C@H](C)[C@H]2N(CCCCn3cnc(-c4ccc(OC)nc4)c3)C(=O)O[C@]12CC (some centres unmarked) [XVII]
[1]; in µg/mL (unit assumed)
  MIC: 0.1
[2]
  MIC: 6.25 µg/mL (≈ 7.3 µM)
[3]
  MIC: 0.2
[4]
  MIC: 0.4
[5]
  MIC: 0.2
[6]
  MIC: 0.2 µg/mL (≈ 0.234 µM)
[7]
  MIC: 0.2
[8]
  MIC: 3.13
[9]
  MIC: 1.56
[10]
  MIC: 12.5
[11]
  MIC: 6.25
[12]
  MIC: 12.5
[13]
  MIC: > 50 µg/mL
[14]
  MIC: =0.05
[15]
  MIC: =0.05
[16]
  MIC: =0.05
[17]
  MIC: =0.05
[18]
  MIC: 0.78

## CC[C@H]1OC(=O)[C@H](C)C(=O)[C@H](C)[C@@H](OC2O[C@H](C)C[C@H](N(C)C)[C@H]2O)[C@@](C)(OC)C[C@@H](C)C(=O)[C@H](C)[C@H]2N(CCCCn3cnc(-c4ccc(F)nc4)c3)C(=O)O[C@]12CC (some centres unmarked) [XV]
[1]; in µg/mL (unit assumed)
  MIC: 0.1
[2]
  MIC: 3.13 µg/mL (≈ 3.71 µM)
[3]
  MIC: 0.4
[4]
  MIC: 0.2
[5]
  MIC: 0.2
[6]
  MIC: 0.1 µg/mL (≈ 0.118 µM)
[7]
  MIC: 0.1
[8]
  MIC: 0.78
[9]
  MIC: 0.78
[10]
  MIC: 3.13
[11]
  MIC: 6.25
[12]
  MIC: 6.25
[13]
  MIC: > 50 µg/mL
[14]
  MIC: =0.05
[15]
  MIC: =0.05
[16]
  MIC: =0.05
[17]
  MIC: =0.05
[18]
  MIC: 0.4

## C=C[C@]12OC(=O)N(CCCCn3cnc(-c4ccc(OCC)nc4)c3)[C@@H]1[C@@H](C)C(=O)[C@H](C)C[C@](C)(OC)[C@H](OC1O[C@H](C)C[C@H](N(C)C)[C@H]1O)[C@@H](C)C(=O)[C@@H](C)C(=O)O[C@@H]2CC (some centres unmarked) [XXII]
[1]; in µg/mL (unit assumed)
  MIC: 0.2
[2]
  MIC: 6.25 µg/mL (≈ 7.2 µM)
[3]
  MIC: 0.4
[4]
  MIC: 0.4
[5]
  MIC: 0.4
[6]
  MIC: 1.56 µg/mL (≈ 1.8 µM)
[7]
  MIC: 0.78
[8]
  MIC: 25
[9]
  MIC: 1.56
[10]
  MIC: 12.5
[11]
  MIC: 6.25
[12]
  MIC: 3.13
[13]
  MIC: > 50 µg/mL
[14]; unit assumed
  MIC: 0.1 µg/mL (≈ 0.115 µM)
[15]
  MIC: =0.05
[16]
  MIC: =0.05
[17]
  MIC: =0.05
[18]
  MIC: 0.78

## C=C[C@]12OC(=O)N(CCCCn3cnc(-c4ccc(OC)nc4)c3C)[C@@H]1[C@@H](C)C(=O)[C@H](C)C[C@](C)(OC)[C@H](OC1O[C@H](C)C[C@H](N(C)C)[C@H]1O)[C@@H](C)C(=O)[C@@H](C)C(=O)O[C@@H]2CC (some centres unmarked) [XXVI]
[1]; in µg/mL (unit assumed)
  MIC: 0.2
[2]
  MIC: 6.25 µg/mL (≈ 7.2 µM)
[3]
  MIC: 0.2
[4]
  MIC: 0.1
[5]
  MIC: 0.4
[7]
  MIC: 0.2
[8]
  MIC: 1.56
[9]
  MIC: 1.56
[10]
  MIC: 12.5
[11]
  MIC: 12.5
[12]
  MIC: 12.5
[13]
  MIC: > 50 µg/mL
[14]; unit assumed
  MIC: 0.1 µg/mL (≈ 0.115 µM)
[15]
  MIC: =0.05
[16]
  MIC: =0.05
[17]
  MIC: =0.05
[18]
  MIC: 1.56

## C=C[C@]12OC(=O)N(CCCCn3cnc(-c4ccc(N(C)C)nc4)c3)[C@@H]1[C@@H](C)C(=O)[C@H](C)C[C@](C)(OC)[C@H](OC1O[C@H](C)C[C@H](N(C)C)[C@H]1O)[C@@H](C)C(=O)[C@@H](C)C(=O)O[C@@H]2CC (some centres unmarked) [XXIV]
[1]; in µg/mL (unit assumed)
  MIC: 0.1
[2]
  MIC: 12.5 µg/mL (≈ 14.4 µM)
[3]
  MIC: 0.2
[4]
  MIC: 0.2
[5]
  MIC: 0.2
[7]
  MIC: 0.4
[8]
  MIC: 0.78
[9]
  MIC: 1.56
[10]
  MIC: 12.5
[11]
  MIC: 12.5
[12]
  MIC: 6.25
[13]
  MIC: > 50 µg/mL
[14]
  MIC: =0.05
[15]
  MIC: =0.05
[16]
  MIC: =0.05
[17]
  MIC: =0.05
[18]
  MIC: 1.56
